{"source": "ChEMBL document CHEMBL1153583", "about": "“Organocatalytic synthesis and sterol 14alpha-demethylase binding interactions of enantioriched 3-(1H-1,2,4-triazol-1-yl)butyl benzoates” (Bioorg Med Chem Lett, 2009)", "data": [{"test": "Binding affinity to Penicillium digitatum CYP51 expressed in Escherichia coli by UV-visible spectrophotometry", "units": {"Kd": "nM"}, "values": [{"compound": "CC(CCOC(=O)c1ccc(Cl)cc1)n1cncn1", "note": "(racemic)", "Kd": 1380}, {"compound": "Cc1ccc(C(=O)OCCC(C)n2cncn2)cc1", "note": "(racemic)", "Kd": 1740}, {"compound": "C[C@@H](CCOC(=O)c1ccc(Cl)cc1)n1cncn1", "Kd": 988}, {"compound": "C[C@@H](CCOC(=O)c1cccc(Cl)c1)n1cncn1", "Kd": 472}, {"compound": "C[C@H](CCOC(=O)c1ccccc1)n1cncn1", "Kd": 1620}, {"compound": "CC(CCOC(=O)c1ccc(Cl)cc1Cl)n1cncn1", "note": "(racemic)", "Kd": 973}, {"compound": "C[C@H](CCOC(=O)c1ccc(Cl)cc1)n1cncn1", "Kd": 682}, {"compound": "C[C@H](CCOC(=O)c1cccc(Cl)c1)n1cncn1", "Kd": 2360}, {"compound": "C[C@H](CCOC(=O)c1ccccc1Cl)n1cncn1", "Kd": 580}, {"compound": "Cc1ccc(C(=O)OCC[C@H](C)n2cncn2)cc1", "Kd": 10500}, {"compound": "C[C@@H](CCOC(=O)c1ccc(Cl)cc1Cl)n1cncn1", "Kd": 452}, {"compound": "CC(CCOC(=O)c1cccc(Cl)c1)n1cncn1", "note": "(racemic)", "Kd": 743}, {"compound": "CC(CCOC(=O)c1ccccc1)n1cncn1", "note": "(racemic)", "Kd": 1180}, {"compound": "CC(C)(C)C(=O)C(Oc1ccc(Cl)cc1)n1cncn1", "note": "(centres undefined) [TRIADIMEFON]", "Kd": 936}, {"compound": "CC(C)(C)C(O)/C(=C/c1ccc(Cl)cc1Cl)n1cncn1", "note": "(centres undefined) [DINICONAZOLE]", "Kd": 247}, {"compound": "C[C@@H](CCOC(=O)c1ccccc1)n1cncn1", "Kd": 1420}, {"compound": "C[C@@H](CCOC(=O)c1ccccc1Cl)n1cncn1", "Kd": 560}, {"compound": "CC(CCOC(=O)c1ccccc1Cl)n1cncn1", "note": "(racemic)", "Kd": 1120}, {"compound": "Cc1ccc(C(=O)OCC[C@@H](C)n2cncn2)cc1", "Kd": 338}]}]}
